Results from patent US9975885B2, “Broad-spectrum non-covalent coronavirus protease inhibitors” (priority 2016, dated 2018).

Legend:
[1] = target: FIPV-3CL^pro (Feline coronavirus (strain FIPV WSU-79/1146) (FCoV), UniProt Q98VG9); assay: biochemical
[2] = target: HKU1-3CL^pro (Human coronavirus HKU1 (isolate N1) (HCoV-HKU1), UniProt P0C6X2); assay: biochemical
[3] = target: SARS-3CL^pro (Severe acute respiratory syndrome coronavirus (SARS-CoV), UniProt P0C6X7); assay type: biochemical
[4] = target: HKU5-3CL^pro (Bat coronavirus HKU5 (BtCoV) (BtCoV/HKU5/2004), UniProt P0C6W4); assay type: biochemical
[5] = target: PEDV-3CL^pro (Porcine epidemic diarrhea virus (strain CV777) (PEDV), UniProt P0C6Y4); assay: biochemical; conditions: for inhibition at 100 µM: read-out: inhibition of PEDV-3CL^pro
[6] = tested on: Ten CoV 3CL^pro's (FIPV-, PEDV-, NL63-, HKU1-, OC43-, SARS-, HKU4-, HKU5-, HKU9-, IBV-3CL^pro); assay type: biochemical, coronaviruses (α-, β-, γ-CoV)
[7] = target: IBV-3CL^pro (Avian infectious bronchitis virus (strain Beaudette) (IBV), UniProt P0C6Y1); assay type: biochemical
[8] = target: OC43-3CL^pro (Human coronavirus OC43 (HCoV-OC43), UniProt P0C6X6); assay type: biochemical
[9] = target: HKU4-3CL^pro (Bat coronavirus HKU4 (BtCoV) (BtCoV/HKU4/2004), UniProt P0C6W3); assay type: biochemical
[10] = target: NL63-3CL^pro (Human coronavirus NL63 (HCoV-NL63), UniProt P0C6X5); assay: biochemical
[11] = target: HKU9-3CL^pro (Bat coronavirus HKU9 (BtCoV) (BtCoV/HKU9), UniProt P0C6W5); assay type: biochemical
Chain of HKU9-3CL^pro (P0C6W5 3104-3409 limits assumed): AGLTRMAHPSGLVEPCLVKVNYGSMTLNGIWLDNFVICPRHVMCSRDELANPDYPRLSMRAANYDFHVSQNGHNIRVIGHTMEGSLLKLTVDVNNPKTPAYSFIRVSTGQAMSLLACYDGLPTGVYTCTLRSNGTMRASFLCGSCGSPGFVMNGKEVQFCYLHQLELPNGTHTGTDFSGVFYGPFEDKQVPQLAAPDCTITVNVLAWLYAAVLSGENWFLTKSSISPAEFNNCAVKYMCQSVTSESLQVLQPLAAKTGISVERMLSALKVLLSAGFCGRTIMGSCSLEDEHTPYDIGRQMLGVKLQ

Chain of FIPV-3CL^pro (Q98VG9 2904-3205 limits assumed): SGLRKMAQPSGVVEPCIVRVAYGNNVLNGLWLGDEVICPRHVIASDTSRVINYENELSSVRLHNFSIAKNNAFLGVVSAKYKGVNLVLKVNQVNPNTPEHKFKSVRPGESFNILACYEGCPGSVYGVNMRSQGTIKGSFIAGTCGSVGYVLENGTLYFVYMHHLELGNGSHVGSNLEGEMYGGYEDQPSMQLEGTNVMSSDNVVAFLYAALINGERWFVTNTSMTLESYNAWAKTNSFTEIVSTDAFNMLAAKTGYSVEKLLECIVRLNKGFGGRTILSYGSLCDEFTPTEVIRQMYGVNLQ
Chain of IBV-3CL^pro (P0C6Y1 2780-3086 limits assumed): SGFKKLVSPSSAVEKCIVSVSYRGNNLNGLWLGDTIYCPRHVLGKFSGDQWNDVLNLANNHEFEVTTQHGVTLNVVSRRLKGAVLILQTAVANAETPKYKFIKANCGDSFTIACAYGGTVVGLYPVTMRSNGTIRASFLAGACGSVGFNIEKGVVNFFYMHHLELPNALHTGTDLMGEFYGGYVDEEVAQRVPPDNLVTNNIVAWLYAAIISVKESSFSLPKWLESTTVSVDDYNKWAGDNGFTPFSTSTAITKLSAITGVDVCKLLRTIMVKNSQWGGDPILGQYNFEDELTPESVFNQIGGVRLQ
Chain of OC43-3CL^pro (P0C6X6 3247-3549 limits assumed): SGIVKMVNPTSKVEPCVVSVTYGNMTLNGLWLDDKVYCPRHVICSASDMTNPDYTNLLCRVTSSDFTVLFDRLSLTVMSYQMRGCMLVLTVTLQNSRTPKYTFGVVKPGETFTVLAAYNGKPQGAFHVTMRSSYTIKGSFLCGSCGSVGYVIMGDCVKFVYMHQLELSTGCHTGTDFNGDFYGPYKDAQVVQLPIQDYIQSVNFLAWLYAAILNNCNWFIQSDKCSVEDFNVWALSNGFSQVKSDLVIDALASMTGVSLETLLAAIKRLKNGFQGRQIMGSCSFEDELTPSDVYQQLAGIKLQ
Chain of HKU1-3CL^pro (P0C6X2 3335-3637 limits assumed): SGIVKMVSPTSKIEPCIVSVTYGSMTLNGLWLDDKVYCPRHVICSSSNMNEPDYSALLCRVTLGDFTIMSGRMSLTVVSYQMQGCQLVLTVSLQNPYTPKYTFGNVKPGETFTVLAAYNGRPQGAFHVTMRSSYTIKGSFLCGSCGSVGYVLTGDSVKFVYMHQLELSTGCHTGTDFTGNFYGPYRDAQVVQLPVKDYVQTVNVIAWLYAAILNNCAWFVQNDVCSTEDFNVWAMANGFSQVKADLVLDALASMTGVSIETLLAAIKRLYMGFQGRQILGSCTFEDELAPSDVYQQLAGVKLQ
Chain of HKU4-3CL^pro (P0C6W3 3292-3597 limits assumed): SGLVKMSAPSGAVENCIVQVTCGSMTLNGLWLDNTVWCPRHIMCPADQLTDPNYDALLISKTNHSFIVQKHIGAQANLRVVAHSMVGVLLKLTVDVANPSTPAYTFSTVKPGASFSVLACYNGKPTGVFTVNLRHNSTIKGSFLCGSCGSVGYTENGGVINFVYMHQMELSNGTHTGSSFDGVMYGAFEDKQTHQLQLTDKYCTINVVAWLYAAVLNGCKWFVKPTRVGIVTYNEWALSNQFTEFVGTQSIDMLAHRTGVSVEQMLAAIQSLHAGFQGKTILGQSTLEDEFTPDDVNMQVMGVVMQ
Chain of NL63-3CL^pro (P0C6X5 2940-3242 limits assumed): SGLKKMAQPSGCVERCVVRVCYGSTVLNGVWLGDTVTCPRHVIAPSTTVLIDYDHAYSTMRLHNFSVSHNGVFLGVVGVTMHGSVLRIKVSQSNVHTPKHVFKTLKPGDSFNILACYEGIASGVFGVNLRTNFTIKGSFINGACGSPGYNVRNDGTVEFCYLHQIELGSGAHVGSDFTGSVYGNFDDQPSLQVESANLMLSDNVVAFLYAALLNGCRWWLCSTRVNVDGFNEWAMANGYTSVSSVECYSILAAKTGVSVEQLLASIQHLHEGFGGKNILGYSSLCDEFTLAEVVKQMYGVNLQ
Chain of PEDV-3CL^pro (P0C6Y4 2998-3299 limits assumed): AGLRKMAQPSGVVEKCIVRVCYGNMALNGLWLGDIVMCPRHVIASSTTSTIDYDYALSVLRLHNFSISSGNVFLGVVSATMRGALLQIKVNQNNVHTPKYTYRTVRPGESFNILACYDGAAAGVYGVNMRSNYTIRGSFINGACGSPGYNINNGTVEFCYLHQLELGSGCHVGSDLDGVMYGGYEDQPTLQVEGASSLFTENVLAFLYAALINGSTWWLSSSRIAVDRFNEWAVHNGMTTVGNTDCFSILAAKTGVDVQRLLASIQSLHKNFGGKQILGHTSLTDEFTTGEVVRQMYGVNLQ
Chain of HKU5-3CL^pro (P0C6W4 3339-3644 limits assumed): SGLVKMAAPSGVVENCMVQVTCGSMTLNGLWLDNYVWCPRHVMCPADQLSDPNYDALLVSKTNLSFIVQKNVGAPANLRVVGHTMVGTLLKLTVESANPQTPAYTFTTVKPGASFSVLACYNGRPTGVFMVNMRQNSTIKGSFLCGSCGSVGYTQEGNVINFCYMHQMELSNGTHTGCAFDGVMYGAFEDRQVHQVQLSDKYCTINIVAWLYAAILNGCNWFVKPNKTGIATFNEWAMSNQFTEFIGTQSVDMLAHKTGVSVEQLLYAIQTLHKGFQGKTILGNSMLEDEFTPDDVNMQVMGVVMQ

| Structure (SMILES) | IC50 [1] | inhibition at 100 µM ([2]; read-out: inhibition of HKU1-3CL^pro) | IC50 [3] | IC50 [4] | inhibition at 100 µM [5] | Gini Coefficient [6] | Score (performance metric score) [6] | inhibition of γ-CoV IBV-3CL^pro [7] | IC50 [8] | inhibition at 100 µM ([1]; read-out: inhibition of FIPV-3CL^pro) | IC50 [9] | inhibition at 100 µM ([10]; read-out: inhibition of NL63-3CL^pro) | IC50 [2] | IC50 [5] | IC50 [11] | inhibition of NL63-3CL^pro [10] | number of 3CL^pro's inhibited [6] | IC50 [10] |
| --- | --- | --- | --- | --- | --- | --- | --- | --- | --- | --- | --- | --- | --- | --- | --- | --- | --- | --- |
| CC(C)C(=O)Nc1ccc(N(C(=O)Cn2nnc3ccccc32)C(C(=O)NCc2ccccc2)c2cccc(F)c2)cc1 (stereo not drawn) [Compound 1P, reference compound] | 6.7 ± 0.7 µM | ≤ 50% | 1.6 ± 0.2 µM | 1.2 ± 0.1 µM | ≤ 50% | 0.31 | 5.7 | no compound, including the parent compounds 1P, 2P, and 3P, was found to be capable of inhibiting | 6.9 ± 0.9 µM |  |  |  |  |  |  |  |  |  |
| CC(C)(C)NC(=O)C(c1ccsc1)N(C(=O)Cn1nnc2ccccc21)c1ccc(NC(=O)C2CC2)cc1 (stereo not drawn) [Compound 2P, reference compound] |  |  |  | 3.5 ± 0.5 µM | ≤ 50% | 0.29 | 8.5 | no compound, including the parent compounds 1P, 2P, and 3P, was found to be capable of inhibiting | 24.4 ± 3.5 µM | ≤ 50% | 3.8 ± 0.3 µM | ≤ 50% |  |  |  |  |  |  |
| CC(C)(C)NC(=O)C(c1cccnc1)N(C(=O)c1c[nH]cn1)c1ccc(C(C)(C)C)cc1 (stereo not drawn) [Compound 3P, reference compound] |  |  |  |  |  | 0.13 | 2.7 | no compound, including the parent compounds 1P, 2P, and 3P, was found to be capable of inhibiting |  |  |  |  |  |  |  |  |  |  |
| CC(C)Cc1ccc(N(C(=O)c2c[nH]cn2)C(C(=O)NC(C)(C)C)c2cccnc2)cc1 (stereo not drawn) [Compound 38, N-(2-(tert-butylamino)-2-oxo-1-(pyridin-3-yl)ethyl)-N-(4-isobutylphenyl)-1H-imidazole-4-carboxamide] | 61.1 ± 13.9 µM |  | 7 ± 0.6 µM | 10.9 ± 0.9 µM |  | 0.21 | 4.5 |  | 24.4 ± 3.1 µM |  | 7.7 ± 0.7 µM |  | 15.4 ± 1.5 µM | 15.5 ± 1.8 µM | 18 ± 3.3 µM | not tolerated |  |  |
| CC(C)(C)NC(=O)C(c1cccnc1)N(C(=O)c1c[nH]cn1)c1ccc(C2CCC2)cc1 (stereo not drawn) [Compound 40, N-(2-(tert-butylamino)-2-oxo-1-(pyridin-3-yl)ethyl)-N-(4-cyclobutylphenyl)-1H-imidazole-4-carboxamide] | 27 ± 3.1 µM |  | 9.9 ± 1.2 µM | 8.7 ± 1.2 µM |  | 0.16 | 3.6 |  | 13.7 ± 1.3 µM |  | 9.6 ± 0.7 µM |  | 6.6 ± 1.2 µM | 11.2 ± 1.5 µM | 18.2 ± 2.2 µM |  | eight of ten |  |
| CC(C)CNC(=O)C(c1cccnc1)N(C(=O)c1c[nH]cn1)c1ccc(C(C)(C)C)cc1 (stereo not drawn) [Compound 43, N-(4-(tert-butyl)phenyl)-N-(2-(isobutylamino)-2-oxo-1-(pyridin-3-yl)ethyl)-1H-imidazole-4-carboxamide] | 16.2 ± 1.3 µM |  | 5.9 ± 0.5 µM | 5.8 ± 0.8 µM |  |  |  |  | 12.4 ± 1 µM |  | 4.6 ± 0.3 µM |  | 5.8 ± 0.8 µM | 1.6 ± 0.1 µM | 10.5 ± 1.1 µM |  |  | 13.5 ± 0.8 µM |
| CC(C)(C)CNC(=O)C(c1cccnc1)N(C(=O)c1c[nH]cn1)c1ccc(C(C)(C)C)cc1 (stereo not drawn) [Compound 44, N-(4-(tert-butyl)phenyl)-N-(2-(neopentylamino)-2-oxo-1-(pyridin-3-yl)ethyl)-1H-imidazole-4-carboxamide] | 12.5 ± 0.8 µM |  | 6.3 ± 0.5 µM | 3.6 ± 0.3 µM |  |  |  |  | 15.6 ± 1 µM |  | 4.2 ± 0.2 µM |  | 9 ± 0.8 µM | 1.4 ± 0.1 µM | 9.1 ± 0.8 µM |  |  | 8.2 ± 0.5 µM |
| CC(C)(C)c1ccc(N(C(=O)c2c[nH]cn2)C(C(=O)NC2CCCC2)c2cccnc2)cc1 (stereo not drawn) [Compound 47, N-(4-(tert-butyl)phenyl)-N-(2-(cyclopentylamino)-2-oxo-1-(pyridin-3-yl)ethyl)-1H-imidazole-4-carboxamide] | 6.9 ± 0.5 µM |  | 1.7 ± 0.2 µM | 2.5 ± 0.2 µM |  |  |  |  | 7.7 ± 0.8 µM |  | 1.9 ± 0.1 µM |  | 3.4 ± 0.4 µM | 0.7 ± 0.03 µM | 6.4 ± 0.5 µM |  |  | 6.3 ± 0.5 µM |
| CC(C)(C)c1ccc(N(C(=O)c2c[nH]cn2)C(C(=O)NCc2ccccc2)c2cccnc2)cc1 (stereo not drawn) [Compound 48, N-(2-(benzylamino)-2-oxo-1-(pyridin-3-yl)ethyl)-N-(4-(tert-butyl)phenyl)-1H-imidazole-4-carboxamide] | 19 ± 1.7 µM |  | 6.6 ± 0.8 µM | 24.8 ± 2.9 µM |  | 0.17 | 3.5 |  | 46.5 ± 8 µM |  | 26.1 ± 2.1 µM |  | 8 ± 1.5 µM | 3.4 ± 0.4 µM | 40.4 ± 8.7 µM |  |  | 26.4 ± 4.2 µM |
